Measurements: PubChem BioAssay AID2060513 (Molecular Pharmacology Branch, DTP, NCI, 2025)

System: 299254-011-R-J1-PDC complex spheroids viability
Experiment: Anticancer human tumor 299254-011-R-J1-PDC patient-derived melanoma cell line growth inhibition [GQUAD]
Conditions: for IC50: curve of first compound; for viability, T/C: stronger effect = lower value; active means viability on the fitted dose curve at most 10% of control; inactive means the rest
Source text: DNA G-quadruplex Stabilizer Agents in Combinations in Complex Spheroids
A high-throughput screen of multi-cell type tumor spheroids was designed to identify active combinations of DNA G-quadruplex stabilizer agents and targeted small molecules. Complex spheroids include a stromal component modeled by human endothelial cells (HUVEC) and fibroblasts modeled by human mesenchymal stem cells (MSCs). The concentration ranges selected for each drug and investigational agent were based upon clinically achievable concentrations if the clinical Cmax of the agent was known.
Compounds. The drugs and investigational agents: pidnarulex (CX-5461; NSC782164), APTO-253 (NSC789042), BRACO-19 (NSC847499), peposertib (NSC802822), ceralasertib (NSC780249), elimusertib (NSC800525), camonsertib (NSC841442), AZD-1390 (NSC803789), olaparib (NSC753686), talazoparib (NSC767125), ART-558 (NSC835418), sotorasib (NSC818433), MRTX-1133 (NSC836407), SN-38 (NSC673596), topotecan (NSC609699), etoposide (NSC141540), doxorubicin (NSC123127), gemcitabine (NSC613327), 5-fluorouracil (NSC19893), paclitaxel (NSC125973), vemurafenib (NSC761431), panobinostat (NSC761190), R-306465 (JNJ-16241199; NSC773264), adavosertib (NSC754352), TP-3654 (NSC805149), carboplatin (NSC241240), KSQ-4279 (NSC840948), and staurosporine (NSC755774) were obtained from the National Cancer Institute (NCI) Developmental Therapeutics Program Chemical Repository (34). The FDA-approved anticancer drug set is available from the NCI Developmental Therapeutics Program. […] The stock solutions were prepared in dimethyl sulfoxide (DMSO, Sigma-Aldrich, St. Louis, MO, cat. D2650) at 800-fold the tested concentration and stored at -70 degrees C prior to their use. All drugs and investigational agents were tested over a range starting from a high concentration at or near the clinical Cmax and decreasing in half-log increments. If the clinical Cmax for an agent had not been determined, the highest concentration tested was 10 microM.
2.3 Cell Culture. All cells were maintained in an incubator at 37 degrees C and 5% CO2 with 95% humidity. The PDC lines were cultured according to standard operating procedures established by the NCI PDMR. All PDCs were thawed and cultured in Matrigel-coated flasks prepared with a working solution of 1X Ham's F-12 nutrient mix, without supplementation (Invitrogen, cat. 11765054), 100 U/mL penicillin-streptomycin (Invitrogen, cat. 15140122), and 2.5% Matrigel (Corning Inc., cat. 354248) for the first three passages. The 857933-349-R-J2-PDC line was cultured in 6C/Colon 1B media, which includes advanced DMEM/F-12 (Thermo Fisher Scientific, cat. 12634028), 10 mM HEPES (Thermo Fisher Scientific, cat. 15630080), 1X GlutaMAX supplement (Thermo Fisher Scientific, cat. 35050061), 0.1 mg/mL primocin (InvivoGen, cat. ant-pm-2), 10% defined fetal bovine serum, heat inactivated (HyClone Laboratories Inc., cat. SH30070.03HI), 50% L-WRN conditioned media (ATCC, cat. CRL-3276), 1.25 mM N-Acetyl-L-cysteine (Sigma-Aldrich, cat. A9165), 10 mM nicotinamide (Sigma-Aldrich, cat. N0636), 1X B-27 supplement (Thermo Fisher Scientific, cat. 17504044), 1X N-2 supplement (Thermo Fisher Scientific, cat. 17502048), 10 microM Y-27632 dihydrochloride (Tocris Bioscience, cat. 1254), and 50 ng/mL human EGF recombinant protein (Thermo Fisher Scientific, cat. PHG0311). The 485176-168-R4-J1-PDC line was cultured in Panc media, which includes all 6C/Colon 1B media components plus 100 ng/mL human FGF-10 (Thermo Fisher Scientific, cat. 100-26), 500 nM SB-431542 (Selleckchem, cat. S1067), and gastrin (Tocris, cat. 3006).
[…]

[1] = second compound 0.0316 µM, first compound 0.0316 µM
[2] = second compound 0.0316 µM, first compound 0.316 µM
[3] = second compound 0.1 µM, first compound 0.0316 µM
[4] = second compound 0.1 µM, first compound 0.316 µM
[5] = second compound 0.316 µM, first compound 0.0316 µM
[6] = second compound 0.316 µM, first compound 0.316 µM
[7] = second compound 1 µM, first compound 0.0316 µM
[8] = second compound 1 µM, first compound 0.316 µM
[9] = second compound 3.16 µM, first compound 0.0316 µM
[10] = second compound 3.16 µM, first compound 0.316 µM
[11] = second compound 10 µM, first compound 0.0316 µM
[12] = second compound 10 µM, first compound 0.316 µM
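Further: spheroids exposed to the agents for seven days before readout.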
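Wherever viability, T/C is given: percent viability relative to DMSO vehicle control wells = 100%.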

Cc1cccc(N(C)C(=O)C2C(O)CCN2c2nc(C)cc(C(F)(F)F)c2C#N)c1 (centres undefined) + Cc1[nH]c2ccc(F)cc2c1-c1nc2c3cccnc3c3ncccc3c2[nH]1
inactive: viability, T/C [1] 104% | viability, T/C (second compound 0.0316 µM, first compound 0.1 µM) 104% | viability, T/C [2] 112% | viability, T/C (second compound 0.0316 µM, first compound 1 µM) 90% | viability, T/C (second compound 0.0316 µM, first compound 3.16 µM) 82.1% | viability, T/C (second compound 0.0316 µM, first compound 10 µM) 90.6% | viability, T/C [3] 86.7% | viability, T/C (second compound 0.1 µM, first compound 0.1 µM) 95.2% | viability, T/C [4] 92.1% | viability, T/C (second compound 0.1 µM, first compound 1 µM) 77.5% | viability, T/C (second compound 0.1 µM, first compound 3.16 µM) 90.4% | viability, T/C (second compound 0.1 µM, first compound 10 µM) 112% | viability, T/C [5] 114% | viability, T/C (second compound 0.316 µM, first compound 0.1 µM) 114% | viability, T/C [6] 100% | viability, T/C (second compound 0.316 µM, first compound 1 µM) 88.5% | viability, T/C (second compound 0.316 µM, first compound 3.16 µM) 137% | viability, T/C (second compound 0.316 µM, first compound 10 µM) 82.8% | viability, T/C [7] 109% | viability, T/C (second compound 1 µM, first compound 0.1 µM) 85.7% | viability, T/C [8] 83.9% | viability, T/C (second compound 1 µM, first compound 1 µM) 109% | viability, T/C (second compound 1 µM, first compound 3.16 µM) 103% | viability, T/C (second compound 1 µM, first compound 10 µM) 102% | viability, T/C [9] 91.3% | viability, T/C (second compound 3.16 µM, first compound 0.1 µM) 122% | viability, T/C [10] 91.4% | viability, T/C (second compound 3.16 µM, first compound 1 µM) 98.6% | viability, T/C (second compound 3.16 µM, first compound 3.16 µM) 116% | viability, T/C (second compound 3.16 µM, first compound 10 µM) 94.5% | viability, T/C [11] 93.8% | viability, T/C (second compound 10 µM, first compound 0.1 µM) 116% | viability, T/C [12] 103% | viability, T/C (second compound 10 µM, first compound 1 µM) 89.5% | viability, T/C (second compound 10 µM, first compound 3.16 µM) 84.9% | viability, T/C (second compound 10 µM, first compound 10 µM) 84.1%
> 10 µM: IC50 (second compound 0.0316 µM) | IC50 (second compound 0.1 µM) | IC50 (second compound 0.316 µM) | IC50 (second compound 1 µM) | IC50 (second compound 3.16 µM) | IC50 (second compound 10 µM)

Cn1ncnc1[C@H]1c2n[nH]c(=O)c3cc(F)cc(c23)N[C@@H]1c1ccc(F)cc1 + Cc1[nH]c2ccc(F)cc2c1-c1nc2c3cccnc3c3ncccc3c2[nH]1
inactive: viability, T/C (second compound 0.0316 µM, first compound 0.000999 µM) 93.7% | viability, T/C (second compound 0.0316 µM, first compound 0.00316 µM) 105% | viability, T/C (second compound 0.0316 µM, first compound 0.00999 µM) 117% | viability, T/C [1] 90.2% | viability, T/C (second compound 0.0316 µM, first compound 0.0999 µM) 88.3% | viability, T/C [2] 101% | viability, T/C (second compound 0.1 µM, first compound 0.000999 µM) 101% | viability, T/C (second compound 0.1 µM, first compound 0.00316 µM) 103% | viability, T/C (second compound 0.1 µM, first compound 0.00999 µM) 88.1% | viability, T/C [3] 92.7% | viability, T/C (second compound 0.1 µM, first compound 0.0999 µM) 118% | viability, T/C [4] 96.2% | viability, T/C (second compound 0.316 µM, first compound 0.000999 µM) 92.8% | viability, T/C (second compound 0.316 µM, first compound 0.00316 µM) 108% | viability, T/C (second compound 0.316 µM, first compound 0.00999 µM) 113% | viability, T/C [5] 94% | viability, T/C (second compound 0.316 µM, first compound 0.0999 µM) 98.2% | viability, T/C [6] 105% | viability, T/C (second compound 1 µM, first compound 0.000999 µM) 86.7% | viability, T/C (second compound 1 µM, first compound 0.00316 µM) 105% | viability, T/C (second compound 1 µM, first compound 0.00999 µM) 87.1% | viability, T/C [7] 112% | viability, T/C (second compound 1 µM, first compound 0.0999 µM) 112% | viability, T/C [8] 102% | viability, T/C (second compound 3.16 µM, first compound 0.000999 µM) 95.3% | viability, T/C (second compound 3.16 µM, first compound 0.00316 µM) 88.2% | viability, T/C (second compound 3.16 µM, first compound 0.00999 µM) 96.3% | viability, T/C [9] 84.6% | viability, T/C (second compound 3.16 µM, first compound 0.0999 µM) 88.6% | viability, T/C [10] 118% | viability, T/C (second compound 10 µM, first compound 0.000999 µM) 96.7% | viability, T/C (second compound 10 µM, first compound 0.00316 µM) 111% | viability, T/C (second compound 10 µM, first compound 0.00999 µM) 84% | viability, T/C [11] 95.7% | viability, T/C (second compound 10 µM, first compound 0.0999 µM) 108% | viability, T/C [12] 99.5%
> 0.316 µM: IC50 (second compound 0.0316 µM) | IC50 (second compound 0.1 µM) | IC50 (second compound 0.316 µM) | IC50 (second compound 1 µM) | IC50 (second compound 3.16 µM) | IC50 (second compound 10 µM)
